Numbered stars: 1 amine (or outer) side, 2 acyl side, 3 side chain; on linkers, the order of the positions; unused ones are H or OH. Square brackets hold non-standard residues; d marks the D form. Peptide text beside a SMILES is read from it. ξ: configuration not given here. X1 = CN(C(Cc1cn(Cc2ccc(Br)cc2)c2ccccc12)C(=O)[*:2])[*:1]; ξAla(CF3) = NC(CC(F)(F)F)C(=O)O; X2 = N#CCCC(O[*:1])C(=O)[*:2]; NMeL = CN[CH](CC(C)C)C(=O)O; NMeA = CN[CH](C)C(=O)O

Consider one compound from PMC10449633 (Nature Chemical Biology, 2023).

This test deals with SARS-CoV-2 spike protein. The test is classed as cell-based.

For the compound `CC(C)CC1NC(=O)C(Cc2cn(Cc3ccc(Br)cc3)c3ccccc23)N(C)C(=O)C(CC(F)(F)F)NC(=O)C(CC(C)C)N(C)C(=O)C(CC(F)(F)F)NC(=O)C(CCC#N)OC(=O)C(C)N(C)C1=O` (stereo not shown) [KZR-8445] (cyclo([X1]L[NMeA][X2][ξAla(CF3)][NMeL][ξAla(CF3)]); configuration not given here), the “biogenesis of the Spike protein” value is listed as “inhibits”.
